In patent US12209075B2, “Pyridine-sulfonamide derivatives as sodium channel inhibitors” (GENENTECH, INC., priority 2018, dated 2025):
pIC50: −log10 of the molar value. Where a name gives a salt, the structure may show the parent alone.

Legend:
[1] = target: T1, hNav1.7 (Homo sapiens (Human), UniProt Q15858); test: Tritiated compound binding to membranes from cells expressing hNav1.7 and the β1 subunit (Nav1.7 LBA EVO); settings: competitive binding vs [3H]compound, membranes with hNav1.7 and β1 subunit
Procedure, shortened: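 Membranes from cells expressing hNav1.7 plus β1 were incubated at room temperature with [3H]-labelled Nav1.7 inhibitor and test compound in 100 mM NaCl, 20 mM Tris pH 7.4, 0.01% BSA. Two protocols: 100 pM radioligand for 18 h, or 300 pM for 3 h. Non-specific binding was set with 1 μM unlabelled compound; filtration/scintillation gave IC50 by 4-parameter fit.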
Target sequence in this assay (Q15858 whole entry, looked up): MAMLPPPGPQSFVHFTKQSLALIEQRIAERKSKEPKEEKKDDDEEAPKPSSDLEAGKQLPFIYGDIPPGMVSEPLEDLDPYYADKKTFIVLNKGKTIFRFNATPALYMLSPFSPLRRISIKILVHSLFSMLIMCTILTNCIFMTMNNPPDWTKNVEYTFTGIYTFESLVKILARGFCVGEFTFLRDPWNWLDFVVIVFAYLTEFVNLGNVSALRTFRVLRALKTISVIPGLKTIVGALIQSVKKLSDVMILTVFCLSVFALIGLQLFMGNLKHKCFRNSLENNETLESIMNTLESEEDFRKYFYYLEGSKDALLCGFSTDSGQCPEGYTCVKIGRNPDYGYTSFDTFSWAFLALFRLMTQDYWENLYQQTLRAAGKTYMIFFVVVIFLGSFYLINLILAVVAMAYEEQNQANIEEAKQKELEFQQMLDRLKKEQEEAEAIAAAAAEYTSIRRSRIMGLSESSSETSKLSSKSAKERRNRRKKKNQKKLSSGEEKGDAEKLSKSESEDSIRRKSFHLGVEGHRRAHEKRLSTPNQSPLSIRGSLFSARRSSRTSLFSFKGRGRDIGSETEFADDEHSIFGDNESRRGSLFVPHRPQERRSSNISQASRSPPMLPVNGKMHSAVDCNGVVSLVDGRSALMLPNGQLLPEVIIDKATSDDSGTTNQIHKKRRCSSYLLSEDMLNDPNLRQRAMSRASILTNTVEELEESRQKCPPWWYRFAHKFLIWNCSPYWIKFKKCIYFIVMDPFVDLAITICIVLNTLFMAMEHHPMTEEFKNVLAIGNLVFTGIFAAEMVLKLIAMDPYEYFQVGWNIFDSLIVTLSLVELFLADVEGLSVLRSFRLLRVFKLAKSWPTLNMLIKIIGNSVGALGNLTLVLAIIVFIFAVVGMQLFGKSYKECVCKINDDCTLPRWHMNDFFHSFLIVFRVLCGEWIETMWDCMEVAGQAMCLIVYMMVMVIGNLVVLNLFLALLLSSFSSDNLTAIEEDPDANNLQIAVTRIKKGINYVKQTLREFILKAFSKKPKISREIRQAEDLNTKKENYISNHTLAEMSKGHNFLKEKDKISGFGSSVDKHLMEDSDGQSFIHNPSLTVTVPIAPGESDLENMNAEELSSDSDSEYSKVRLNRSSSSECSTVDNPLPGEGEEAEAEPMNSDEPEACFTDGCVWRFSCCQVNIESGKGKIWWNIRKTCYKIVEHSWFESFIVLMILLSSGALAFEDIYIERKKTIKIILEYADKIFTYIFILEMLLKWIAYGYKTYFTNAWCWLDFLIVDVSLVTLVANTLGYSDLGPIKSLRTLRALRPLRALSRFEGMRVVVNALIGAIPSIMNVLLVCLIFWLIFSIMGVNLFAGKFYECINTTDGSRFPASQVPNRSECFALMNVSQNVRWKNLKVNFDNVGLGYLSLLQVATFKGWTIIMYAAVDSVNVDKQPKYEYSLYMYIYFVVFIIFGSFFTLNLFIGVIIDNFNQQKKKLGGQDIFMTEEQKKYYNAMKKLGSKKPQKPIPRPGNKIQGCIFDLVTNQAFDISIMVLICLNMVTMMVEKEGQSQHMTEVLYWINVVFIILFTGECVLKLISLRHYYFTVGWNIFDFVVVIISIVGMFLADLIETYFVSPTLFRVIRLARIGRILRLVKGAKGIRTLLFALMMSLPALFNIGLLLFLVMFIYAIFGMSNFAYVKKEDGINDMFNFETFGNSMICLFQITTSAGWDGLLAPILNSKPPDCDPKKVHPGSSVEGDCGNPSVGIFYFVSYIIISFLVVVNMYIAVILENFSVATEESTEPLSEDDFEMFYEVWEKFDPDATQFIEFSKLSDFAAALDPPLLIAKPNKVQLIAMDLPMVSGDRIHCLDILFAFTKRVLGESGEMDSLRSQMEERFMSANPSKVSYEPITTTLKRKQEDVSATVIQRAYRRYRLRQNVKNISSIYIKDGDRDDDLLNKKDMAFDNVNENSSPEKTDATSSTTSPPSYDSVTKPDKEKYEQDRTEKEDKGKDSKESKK
Target sequence in this assay (Q07699 whole entry partner, looked up): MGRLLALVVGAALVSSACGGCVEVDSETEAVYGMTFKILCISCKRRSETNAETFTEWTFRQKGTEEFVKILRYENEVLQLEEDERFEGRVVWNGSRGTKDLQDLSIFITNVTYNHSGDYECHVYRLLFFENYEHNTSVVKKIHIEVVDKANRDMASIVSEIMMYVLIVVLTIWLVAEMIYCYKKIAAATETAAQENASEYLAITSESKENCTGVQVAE

[2] = target: T1, hNav1.7; test: Patch voltage clamp electrophysiology assay (EP), Syncropatch 384PE, CHO cells expressing Nav1.7; type: cell-based; settings: holding potential −50 mV, 7.5 min compound incubation; read-out: EP_SP hNav1.7 EVO IC50
Source text: Example 64c. Electrophysiological Assay (EP) (In Vitro Assay)
Patch voltage clamp electrophysiology allows for the direct measurement and quantification of block of voltage-gated sodium channels (NaV's), and allows the determination of the time- and voltage-dependence of block which has been interpreted as differential binding to the resting, open, and inactivated states of the sodium channel (Hille, B., Journal of General Physiology (1977), 69: 497-515).
The following voltage clamp electrophysiology studies are performed on representative compounds using cells heterologously expressing Nav1.7 or Nav1.5 channels. cDNAs for Nav1.7 (NM 002977) and Nav1.5 (AC137587) are stably expressed in Chinese Hamstr Ovary (CHO) cells and CHL (Chinese Hamster Lung) cells respectively. Sodium currents are measured in the whole-cell configuration using Syncropatch 384PE ([…], Germany). 1NPC®-384 chips with custom medium resistance and single hole mode are used. Internal solution consists of (in mM): […], 10CsCl, 20EGTA, and 10Hepes (pH adjusted to 7.2); and external solution contains (in mM): 60NMDG, 80NaCl, 4 KCl, 1MgCl2, 2CaCl2, 2D-Glucose monohydrate, 10Hepes (pH adjusted to 7.4 with NaOH).
After system flushing, testing compounds are dissolved in external solution containing 0.1% Pluronic F-127. The chip is moved into the measuring head and the instrument primes the chip with external and internal solutions. 10 μl cells are added to the chip from a cell hotel, and a negative pressure of −50 mBar is applied to form a seal. Following treatment with seal enhancer solution and wash-off with external solution, negative pressure of −250 mbar is applied for 1 second to achieve the whole-cell configuration, followed by three washing steps in external solution. 20 μl of compounds is added to 40 μl in each well (1:3 dilution of compounds), and after mixing, 20 μl is removed so the volume is retained at 40 ul. After approximately 13 minutes recordings, 20 μl/well of 2 uM TTX, or 333 uM Tetracaine (for Nav1.5) is added to achieve full block.
For voltage protocol, an holding potential of −50 mV is applied during the whole experiment. A depolarizing step is applied to −10 mV for 10 ms, followed by a hyperpolarization step to −150 mV for 20 ms to allow channel recovery from inactivation. A second depolarizing step is applied from −150 mV to −10 mV for 10 ms, where currents are measured to derive blocking effects of compounds. Inhibition is determined based on 7.5 min of compound incubation.
Target sequence in this assay (Q15858 other isoform, or with tags, fused parts or gaps): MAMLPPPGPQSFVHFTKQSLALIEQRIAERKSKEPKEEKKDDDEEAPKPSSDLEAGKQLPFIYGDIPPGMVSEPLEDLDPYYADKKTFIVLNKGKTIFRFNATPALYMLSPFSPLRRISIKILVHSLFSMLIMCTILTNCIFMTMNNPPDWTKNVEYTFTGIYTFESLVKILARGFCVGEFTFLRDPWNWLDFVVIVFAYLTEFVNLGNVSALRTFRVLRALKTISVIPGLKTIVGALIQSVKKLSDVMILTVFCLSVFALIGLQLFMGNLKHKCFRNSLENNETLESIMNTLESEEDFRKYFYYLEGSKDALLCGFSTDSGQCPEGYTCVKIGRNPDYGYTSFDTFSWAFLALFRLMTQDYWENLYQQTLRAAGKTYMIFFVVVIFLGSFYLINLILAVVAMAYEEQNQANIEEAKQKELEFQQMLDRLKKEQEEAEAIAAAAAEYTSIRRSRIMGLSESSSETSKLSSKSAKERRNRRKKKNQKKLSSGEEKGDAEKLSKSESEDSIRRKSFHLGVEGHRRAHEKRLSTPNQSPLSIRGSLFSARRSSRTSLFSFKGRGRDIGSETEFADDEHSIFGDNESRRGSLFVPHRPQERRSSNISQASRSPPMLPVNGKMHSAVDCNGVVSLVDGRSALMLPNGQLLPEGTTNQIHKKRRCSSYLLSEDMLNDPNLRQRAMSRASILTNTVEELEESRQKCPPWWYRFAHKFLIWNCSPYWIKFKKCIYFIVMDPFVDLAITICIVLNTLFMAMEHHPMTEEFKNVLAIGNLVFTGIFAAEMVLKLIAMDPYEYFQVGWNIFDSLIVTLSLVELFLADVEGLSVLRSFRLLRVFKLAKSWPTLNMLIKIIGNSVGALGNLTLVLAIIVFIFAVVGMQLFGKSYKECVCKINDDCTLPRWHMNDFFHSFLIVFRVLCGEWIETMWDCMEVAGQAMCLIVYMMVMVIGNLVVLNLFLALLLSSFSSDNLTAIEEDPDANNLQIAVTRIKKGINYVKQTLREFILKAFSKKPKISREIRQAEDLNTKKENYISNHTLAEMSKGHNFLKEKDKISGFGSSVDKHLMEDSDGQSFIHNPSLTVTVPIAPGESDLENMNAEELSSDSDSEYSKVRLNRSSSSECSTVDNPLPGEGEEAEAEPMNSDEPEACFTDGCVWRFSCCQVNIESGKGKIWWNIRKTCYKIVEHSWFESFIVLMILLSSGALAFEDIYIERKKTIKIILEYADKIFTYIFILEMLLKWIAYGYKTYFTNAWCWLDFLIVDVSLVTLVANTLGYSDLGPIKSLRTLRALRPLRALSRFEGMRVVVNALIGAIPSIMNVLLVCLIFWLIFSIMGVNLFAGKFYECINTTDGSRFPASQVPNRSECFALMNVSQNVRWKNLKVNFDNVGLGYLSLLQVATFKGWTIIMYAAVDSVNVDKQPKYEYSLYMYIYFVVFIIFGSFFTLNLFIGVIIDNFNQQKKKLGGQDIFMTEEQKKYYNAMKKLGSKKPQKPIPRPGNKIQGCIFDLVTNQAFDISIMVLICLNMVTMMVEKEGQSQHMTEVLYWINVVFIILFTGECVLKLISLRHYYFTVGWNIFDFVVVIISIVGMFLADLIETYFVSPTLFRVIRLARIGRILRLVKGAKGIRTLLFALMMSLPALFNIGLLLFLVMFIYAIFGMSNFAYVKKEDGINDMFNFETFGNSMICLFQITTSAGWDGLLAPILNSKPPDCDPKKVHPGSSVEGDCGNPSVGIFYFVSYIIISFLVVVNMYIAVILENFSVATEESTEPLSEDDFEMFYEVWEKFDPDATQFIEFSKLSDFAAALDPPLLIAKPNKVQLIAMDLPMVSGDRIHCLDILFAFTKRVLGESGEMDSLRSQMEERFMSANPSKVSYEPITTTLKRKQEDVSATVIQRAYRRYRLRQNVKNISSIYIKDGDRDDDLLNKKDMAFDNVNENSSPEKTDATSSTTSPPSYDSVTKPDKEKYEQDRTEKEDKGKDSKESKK

For `CN(C)[C@H]1C[C@@H](c2cccc(OC(F)(F)F)c2)CC[C@@H]1Nc1ccc(S(=O)(=O)Nc2ccncn2)cn1` [Example 8, 6-(((1S,2S,4S)-2-(dimethylamino)-4-(3-(trifluoromethoxy)phenyl)cyclohexyl)amino)-N-(pyrimidin-4-yl)pyridine-3-sulfonamide formate], the pIC50 [1] was 8.15 and the pIC50 [2] was 9.24.
